{
  "source": "paper PMC7114507",
  "about": "(Virus Research, 2010)",
  "biological_target": "T1, recHE4 (Isavirus salaris, UniProt Q9J0Y0)",
  "T1 sequence (Q9J0Y0 17-353)": "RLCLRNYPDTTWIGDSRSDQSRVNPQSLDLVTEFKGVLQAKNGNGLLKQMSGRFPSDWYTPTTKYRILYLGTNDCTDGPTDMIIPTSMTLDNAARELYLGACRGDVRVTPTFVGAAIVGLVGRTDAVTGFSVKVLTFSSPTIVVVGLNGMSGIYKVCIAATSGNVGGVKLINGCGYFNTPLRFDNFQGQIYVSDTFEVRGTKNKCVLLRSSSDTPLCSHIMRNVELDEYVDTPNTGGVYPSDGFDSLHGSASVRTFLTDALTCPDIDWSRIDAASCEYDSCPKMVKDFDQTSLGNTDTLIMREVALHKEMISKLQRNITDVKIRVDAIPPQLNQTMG",
  "assay": "fluorescence acetylesterase assay, recHE on cobalt beads",
  "type": "biochemical",
  "details": "0-500 uM substrate, PBS pH 7.4, RT; bead-bound",
  "data": [
    {"smiles": "CC(=O)Oc1ccc2c(C)cc(=O)oc2c1", "note": "[4-methylumbelliferyl acetate]", "values": [
      {"measurement": "fluorescence acetylesterase assay, recHE on cobalt beads", "value": "recHE4 and recHE7 proteins exhibit similar acetylesterase activities with all substrate concentrations tested"}
    ]}
  ]
}
